Numbers after ± are expanded uncertainties.
Assay: activity coefficient (dimensionless); of the first substance listed, at infinite dilution; xn = mol fraction of the nth substance listed
Conditions: Liquid, Chromatography, x1 = 0

activity coefficient (303.15 K) | activity coefficient (313.15 K) | activity coefficient (323.15 K) | activity coefficient (333.15 K) | activity coefficient (343.15 K) | activity coefficient (353.15 K) | activity coefficient (363.15 K) | SMILES
1.11 ± 0.092 | 1.21 ± 0.1 | 1.28 ± 0.11 | 1.36 ± 0.11 | 1.43 ± 0.12 | – | – | ClC(Cl)Cl [trichloromethane] + CCCCn1cc[n+](C)c1.F[B-](F)(F)F
0.813 ± 0.068 | 0.716 ± 0.061 | 0.646 ± 0.056 | 0.596 ± 0.053 | 0.529 ± 0.048 | – | – | CO [methanol] + CCCCn1cc[n+](C)c1.F[B-](F)(F)F
2.8 ± 0.24 | 2.48 ± 0.21 | 2.23 ± 0.19 | 1.96 ± 0.17 | 1.64 ± 0.14 | – | – | CCCO [propan-1-ol] + CCCCn1cc[n+](C)c1.F[B-](F)(F)F
1.59 ± 0.14 | 1.39 ± 0.12 | 1.27 ± 0.11 | 1.17 ± 0.097 | 1.07 ± 0.088 | – | – | CCO [ethanol] + CCCCn1cc[n+](C)c1.F[B-](F)(F)F
1.1 ± 0.091 | 1.15 ± 0.095 | 1.2 ± 0.099 | 1.24 ± 0.1 | 1.28 ± 0.11 | – | – | ClCCl [dichloromethane] + CCCCn1cc[n+](C)c1.F[B-](F)(F)F
3.3 ± 0.28 | 3.34 ± 0.29 | 3.36 ± 0.29 | 3.39 ± 0.29 | 3.41 ± 0.29 | – | – | CCOC(C)=O [ethyl acetate] + CCCCn1cc[n+](C)c1.F[B-](F)(F)F
6.96 ± 0.6 | 5.91 ± 0.51 | 5.15 ± 0.45 | 4.56 ± 0.39 | 4 ± 0.34 | – | – | CCCCCO [pentan-1-ol] + CCCCn1cc[n+](C)c1.F[B-](F)(F)F
2.63 ± 0.23 | 2.22 ± 0.19 | 1.86 ± 0.16 | 1.66 ± 0.14 | 1.53 ± 0.13 | – | – | CC(C)O [propan-2-ol] + CCCCn1cc[n+](C)c1.F[B-](F)(F)F

Further lines, the compound ahead of its results:

SMILES | activity coefficient (303.15 K) | activity coefficient (313.15 K) | activity coefficient (323.15 K) | activity coefficient (333.15 K) | activity coefficient (343.15 K) | activity coefficient (353.15 K) | activity coefficient (363.15 K)
ClC(Cl)(Cl)Cl [tetrachloromethane] + CCCCn1cc[n+](C)c1.F[B-](F)(F)F | 5.73 ± 0.49 | 6.09 ± 0.53 | 6.27 ± 0.54 | 6.42 ± 0.55 | 6.52 ± 0.56 | – | –
CCC(C)O (stereo not given) [butan-2-ol] + CCCCn1cc[n+](C)c1.F[B-](F)(F)F | 3.85 ± 0.33 | 3.44 ± 0.3 | 3.12 ± 0.27 | 2.79 ± 0.24 | 2.56 ± 0.22 | – | –
CC(C)CCO [3-methylbutan-1-ol] + CCCCn1cc[n+](C)c1.F[B-](F)(F)F | 6.63 ± 0.57 | 5.74 ± 0.49 | 5.08 ± 0.44 | 4.53 ± 0.39 | 4.08 ± 0.35 | – | –
C1COCCO1 [1,4-dioxane] + CCCCn1cc[n+](C)c1.F[B-](F)(F)F | 1.53 ± 0.13 | 1.54 ± 0.13 | 1.55 ± 0.13 | 1.56 ± 0.13 | 1.57 ± 0.13 | – | –
CC(C)CO [2-methyl-1-propanol] + CCCCn1cc[n+](C)c1.F[B-](F)(F)F | 2.63 ± 0.23 | 2.22 ± 0.19 | 1.86 ± 0.16 | 1.66 ± 0.14 | 1.53 ± 0.13 | – | –
O=C1CCCCC1 [cyclohexanone] + CCCCn1cc[n+](C)c1.F[B-](F)(F)F | – | – | 2.64 ± 0.23 | 2.62 ± 0.23 | 2.61 ± 0.23 | 2.58 ± 0.22 | 2.57 ± 0.22
CCCCO [butan-1-ol] + CCCCn1cc[n+](C)c1.F[B-](F)(F)F | 4.14 ± 0.36 | 3.67 ± 0.32 | 3.3 ± 0.28 | 2.98 ± 0.26 | 2.72 ± 0.23 | – | –
CC#N [acetonitrile] + CCCCn1cc[n+](C)c1.F[B-](F)(F)F | 0.734 ± 0.062 | 0.742 ± 0.063 | 0.752 ± 0.063 | 0.757 ± 0.064 | 0.768 ± 0.065 | – | –
CC(C)=O [acetone] + CCCCn1cc[n+](C)c1.F[B-](F)(F)F | 1.16 ± 0.096 | 1.19 ± 0.098 | 1.21 ± 0.1 | 1.23 ± 0.1 | 1.25 ± 0.1 | – | –
